Target: T1, human-liver type GST-GK (Homo sapiens, UniProt P35557)
T1 construct: made in house; host or cells: E. coli
T1 sequence (P35557 1-466 isoform P35557-2): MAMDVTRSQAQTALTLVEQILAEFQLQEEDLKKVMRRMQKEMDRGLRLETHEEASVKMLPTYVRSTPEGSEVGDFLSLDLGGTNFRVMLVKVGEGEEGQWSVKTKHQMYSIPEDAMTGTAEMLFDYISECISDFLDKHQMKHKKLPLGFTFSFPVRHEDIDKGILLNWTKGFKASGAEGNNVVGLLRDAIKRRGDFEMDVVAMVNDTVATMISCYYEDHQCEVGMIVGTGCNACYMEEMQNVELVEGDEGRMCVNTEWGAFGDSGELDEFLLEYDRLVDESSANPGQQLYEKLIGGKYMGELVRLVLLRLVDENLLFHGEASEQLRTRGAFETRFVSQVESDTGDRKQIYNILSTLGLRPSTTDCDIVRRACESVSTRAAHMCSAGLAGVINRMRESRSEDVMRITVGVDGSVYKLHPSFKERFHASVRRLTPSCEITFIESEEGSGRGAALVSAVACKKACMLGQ
Test: Glucokinase activation effect (G6PDH-coupled NADPH assay)
Type: biochemical
Conditions: glucose 5 mM, ATP 5 mM, 30° C., NADPH monitored at 340 nm for 10 minutes, compound 0.01 to 100 μM (5% DMSO)
Description: A glucokinase activity was examined by measuring the amount of NADPH obtained in generating 6-phosphogluconic acid from […], not by directly measuring the generated glucose-6-phosphoric acid. The glucokinase enzyme used in the examination was human-liver type GST-GK expressed by E. Coli. The measurement of the activity was carried out by the following procedures. Specifically, 30 mM HEPES buffer (pH7.4) containing 30 mM MgCl2, 30 mM KCl, 1 mM DTT, 5 mM NADP (Nacalai), 0.7 mU/mL G6PDH (Roche 737-232 grade II from yeast) and 0.17 μL/mL GST-GK was prepared as a reaction solution. An evaluating compound dissolved in DMSO was added to the reaction solution to give a final concentration of 0.01 to 100 μM (5% DMSO). Thereto was added glucose (final concentration of 5 mM) as a substrate and was added ATP (final concentration of 5 mM) to proceed the reaction. The reaction temperature is 30° C. and a generation of NADPH was monitored by changes of absorbance of 340 nm. An increase of absorbance for 10 minutes after starting reaction was measured and the blank-corrected value was used as a GK activity (mOD/min). EC50 level was calculated by a GK activity level in an addition of the evaluating compound at each concentration.

EC50	SMILES
70 nM	COc1ccc2nc(NC(=O)/C(=N/N3CCCC3)c3ccc(S(=O)(=O)C4CC4)cc3)sc2n1 [Example 1]
30 nM	O=C(Nc1ncc(Br)s1)/C(=N/N1CCCC1)c1ccc(S(=O)(=O)C2CC2)cc1 [Example 24]
360 nM	O=C(Nc1ncc(F)s1)/C(=N/N1CCOCC1)c1ccc(S(=O)(=O)C2CC2)cc1 [Example 2]
110 nM	O=C(Nc1ncc(Cl)s1)/C(=N/N1CCOCC1)c1ccc(S(=O)(=O)C2CC2)cc1 [Example 42]
120 nM	CN(C)S(=O)(=O)c1cnc(NC(=O)/C(=N/N2CCCC2)c2ccc(S(=O)(=O)C3CC3)cc2)s1 [Example 64]
220 nM	CN1CCN(S(=O)(=O)c2cnc(NC(=O)/C(=N/N3CCCC3)c3ccc(S(=O)(=O)C4CC4)cc3)s2)CC1 [Example 27]

From patent publication US8314247B2, “Hydrazone derivative” (Mitsubishi Tanabe Pharma Corporation, priority 2007, dated 2012)
